The values below come from US20040176387A1, “Method of treating peripheral vascular diseases, peripheral neuropathies, and autonomic neuropathies” (Pfizer Inc, priority 2000, published 2004).

Holding throughout (assay type): in vivo, human
Assay [1] can be described thus: Sildenafil treatment of diabetic foot ulcer in patients (case reports). The source says:
During the treatment of-the erectile dysfunction it was noted that the foot ulcer was healing. This foot ulcer began approximately two years prior and the patient had been through vascular studies, had seen vascular surgeons, podiatrists, and had been in wound care clinics with minimal results at best. They had also been hospitalized for approximately a month on IV antibiotics, etc. and the threat was very real that the patient was going to require a below the knee amputation. The ulcer would appear to be healing at times only to reoccur to its pretreatment size and depth.

Assay [2] is described as follows: Sildenafil treatment of erectile dysfunction in patients (case reports). On the procedure:
Patient #2 was suffering from chronic changes of both lower extremities secondary to peripheral vascular disease and diabetes mellitus. […] Patient #4 suffered from erectile dysfunction. They also suffered from onychiomycosis (fungal infection of the nailbed). They were placed on sildenafil treatment taking one 50 mg pill on an as-needed basis.

A short description of assay [3]: Sildenafil treatment of chronic lower extremity changes secondary to peripheral vascular disease (case report). To be noted: Patient #2; diabetes mellitus. From the text:
Patient #2 was suffering from chronic changes of both lower extremities secondary to peripheral vascular disease and diabetes mellitus.

Assay [4] deals with onychiomycosis (fungal infection of the nailbed). Kind of assay: Sildenafil treatment of onychiomycosis (fungal infection of the nailbed) (case report). The source says:
In regards to other uses of cycli guanosine 3′,5′-monophosphate type five (cGMP PDE5) inhibitors, including the compound sildenafil, for which we have shown is effective in the treatment of diabetic foot ulcers, it is also within the concept of the present invention to treat other peripheral vascular diseases such as Raynaud's Phenomenon, including CREST syndrome, autoimmune diseases such as systemic lupus erythematosis, rheumatoid diseases and diabetic retinopathies. The treatment of the present invention would also be beneficial in peripheral and autonomic neuropathies or any other disease entity that results from small vessel disease and directly large vessel disease. […] The patient in this case was requesting treatment for erectile dysfunction and again the inventor discovered this unexpected beneficial result. The inventor has observed such results in varied diseases which have the common element of peripheral vascular disease or peripheral neuropathy. The beneficial effect of the method is believed to be due to increase vascular flow of the small vessels which aided the body in healing itself. Patient #4 suffered from erectile dysfunction. They also suffered from onychiomycosis (fungal infection of the nailbed). They were placed on sildenafil treatment taking one 50 mg pill on an as-needed basis.

[5] abbreviates: Patient #4, one 50 mg pill on an as-needed basis.

As to `CCCc1nn(C)c2c(=O)[nH]c(-c3cc(S(=O)(=O)N4CCN(C)CC4)ccc3OCC)nc12` [sildenafil, 5-[2-ethoxy-5-(4-methylpiperazin 1-ylsulphonyl)-phenyl]-1,6-dihydro-1-methyl-3-propylpyrazolo [4,3-d] pyrimidine-7-one], in assay [1] (Patient #1, insulin dependent diabetic, sildenafil taken for erectile dysfunction, before daily dosing), the “diabetic foot ulcer size after sildenafil treatment began” value was “the ulcer was decreasing in the size”. Besides, the “resolution of diabetic foot ulcer” value in assay [1] (Patient #1, 50 mg of sildenafil once a day, ulcer began approximately two years prior) is “complete resolution of the diabetic food ulcer in one month”. In assay [1] (Patient #1, continued on 50 mg once a day for the past two years), the “reoccurrence of diabetic foot ulcer” value is on record as “without reoccurrence”. In addition, the “effectiveness in the treatment of foot ulcers related to diabetes” value in assay [1] (general statement, diabetic patients) was “very effective”. In addition, the erectile dysfunction result is reported as “significantly improve” in assay [2] (Patient #2, diabetes mellitus and peripheral vascular disease); “improved” in assay [2] (setting [5]). In addition, the “chronic changes of both lower extremities secondary to peripheral vascular disease” value in assay [3] is “significantly improved or resolved completely”. Moreover, the “fungal infection (onychiomycosis)” value in assay [4] (setting [5]) is reported as “cured”. Also, the “onychiomycosis, particularly of the lower extremity” value in assay [4] (treated exclusively with sildenafil, without antifungal medication) is listed as “resolved completely”.
